Structures can show the parent of a compound that is named as a salt. Where two headings read alike, the source gives them in different places.
Molecular target: T1, human AspH (His6-AspH315–758) (Homo sapiens, UniProt Q12797)
T1 construct: N-Terminally His6-tagged human AspH315–758 (His6-AspH315–758) was produced in Escherichia coli BL21 (DE3) cells; made in house; host or cells: Escherichia coli BL21 (DE3), pET-28a(+) vector
T1 sequence (Q12797 315-758): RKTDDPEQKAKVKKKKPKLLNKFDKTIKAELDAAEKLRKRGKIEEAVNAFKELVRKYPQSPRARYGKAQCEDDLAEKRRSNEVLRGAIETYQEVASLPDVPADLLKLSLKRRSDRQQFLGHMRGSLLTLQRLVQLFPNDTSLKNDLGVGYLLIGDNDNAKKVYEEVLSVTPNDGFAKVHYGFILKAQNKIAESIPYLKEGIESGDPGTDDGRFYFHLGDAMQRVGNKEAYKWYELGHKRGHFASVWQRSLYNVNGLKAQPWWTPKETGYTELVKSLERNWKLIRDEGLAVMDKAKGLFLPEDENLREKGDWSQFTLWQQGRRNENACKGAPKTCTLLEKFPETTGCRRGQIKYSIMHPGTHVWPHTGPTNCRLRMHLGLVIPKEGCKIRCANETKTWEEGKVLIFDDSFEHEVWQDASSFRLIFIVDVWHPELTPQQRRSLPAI
Assay: SPE-MS AspH inhibition assay (hFX-CP101-119 substrate hydroxylation)
Type: biochemical

[1] = AspH-inhibitor screening, 384-well Plate 1
[2] = AspH-inhibitor screening, 384-well Plate 1, substrate conversion
[3] = AspH-inhibitor screening, Plate 1-duplicate
[4] = AspH-inhibitor screening, Plate 1-duplicate, substrate conversion
[5] = 50 nM His6-AspH315–758, 1 μM hFX-CP101–119, 100 μM LAA, 3 μM 2OG, 2 μM FAS, 50 mM HEPES pH 7.5, 20 °C, read-out: IC50
[6] = 20 μM fixed inhibitor, 50 nM His6-AspH315–758, 1 μM hFX-CP101–119, 100 μM LAA, 3 μM 2OG, 2 μM FAS, 50 mM HEPES pH 7.5, 20 °C, relative to DMSO and 2,4-PDCA controls
[7] = read-out: IC50 at 10 μM substrate, 10 μM hFX-CP101–119 and 10 μM 2OG instead of 1 μM hFX-CP101–119 and 3 μM 2OG
[8] = read-out: IC50 at 20 μM Fe(II), 20 μM Fe(II) instead of 2 μM Fe(II)
[9] = read-out: IC50 at 200 μM 2OG, 200 μM 2OG instead of 3 μM 2OG

| SMILES | Plate 1 (% inhibition) [1] [%] | Plate 1 (% conversion) [2] [%] | Plate 1-duplicate (% inhibition) [3] [%] | Plate 1-duplicate (% conversion) [4] [%] | also measured |
| --- | --- | --- | --- | --- | --- |
| CC[C@@]1(O)C(=O)OCc2c1cc1n(c2=O)Cc2cc3c(CN(C)C)c(O)ccc3nc2-1 [Topotecan hydrochloride] | 4.87 | 47.50 | 6.81 | 48.66 |  |
| CN(C)CCOc1ccc(/C(=C(/CCCl)c2ccccc2)c2ccccc2)cc1 [Toremifene citrate] | 75.12 | 15.06 | 75.95 | 14.37 |  |
| CC1=C(/C=C/C(C)=C/C=C/C(C)=C/C(=O)O)C(C)(C)CCC1 [Tretinoin] | 71.19 | 16.88 | 64.04 | 20.28 |  |
| C1CN1c1nc(N2CC2)nc(N2CC2)n1 [Triethylenemelamine] |  |  |  |  | Plate 1 (% conversion): 46.54%; Plate 1 (% inhibition): 6.96%; Plate 1-duplicate (% conversion): 50.74%; Plate 1-duplicate (% inhibition): 2.63% |
| O=c1[nH]c(=O)n([C@H]2C[C@H](O)[C@@H](CO)O2)cc1C(F)(F)F [Trifluridine] | 1.86 | 48.89 | -0.91 | 52.49 |  |
| O=C(CCCCCCC(=O)Nc1ccc([C@H]2O[C@@H](CSc3nc(-c4ccccc4)c(-c4ccccc4)o3)C[C@@H](c3ccc(CO)cc3)O2)cc1)NO [Tubacin, reference compound] | 92.77 | 6.91 | 87.89 | 8.45 | IC50 [5]: 4.12 ± 0.5 µM; AspH inhibition at 20 μM [6]: 90.3 ± 3.5%; inhibition at 20 µM [6]: > 90%; IC50 [7]: 3.57 ± 0.1 µM; IC50 [8]: 4.91 ± 1.63 µM; IC50 [9]: 5.69 ± 0.7 µM |
| CN1CCc2c(c3ccccc3n2Cc2ccc(C(=O)NO)cc2)C1.Cl [Tubastatin A HCl] | -13.29 | 55.89 | -15.22 | 59.59 |  |
| CN[C@@H]1C[C@H]2O[C@@](C)([C@@H]1OC)n1c3ccccc3c3c4c(c5c6ccccc6n2c5c31)C(=O)N[C@H]4O [UCN-01] | 3.15 | 48.30 | -0.80 | 52.44 |  |
| Oc1ncc(N(CCCl)CCCl)c(O)n1 [Uracil mustard] |  |  |  |  | Plate 1 (% conversion): 47.47%; Plate 1 (% inhibition): 4.95%; Plate 1-duplicate (% conversion): 46.70%; Plate 1-duplicate (% inhibition): 10.76% |
| CC(=O)OC[C@H]1O[C@@H](n2ccc(=O)[nH]c2=O)[C@H](OC(C)=O)[C@@H]1OC(C)=O [Uridine triacetate] | 4.05 | 47.88 | 7.04 | 48.55 |  |
| N#Cc1ccc(COC[C@H]2O[C@@H](n3c(NCc4ccc(Cl)c(Cl)c4)nc4c(N)ncnc43)[C@H](O)[C@@H]2O)cc1 [VER 155008] | 10.19 | 45.05 | 7.21 | 48.47 |  |
| CCCC(CCC)C(=O)O [Valproic acid] | 16.50 | 42.13 | 5.73 | 49.20 |  |
| CCCCC(=O)OCC(=O)[C@]1(O)Cc2c(O)c3c(c(O)c2[C@@H](O[C@H]2C[C@H](NC(=O)C(F)(F)F)[C@H](O)[C@H](C)O2)C1)C(=O)c1c(OC)cccc1C3=O [Valrubicin] | -2.24 | 50.79 | -16.67 | 60.31 |  |
| COc1cc2c(Nc3ccc(Br)cc3F)ncnc2cc1OCC1CCN(C)CC1 [Vandetanib] | -0.26 | 49.87 | 1.85 | 51.12 |  |
| CCc1c(C(=O)C(N)=O)c2c(OCC(=O)O)cccc2n1Cc1ccccc1 [Varespladib] | 9.84 | 45.21 | 8.14 | 48.01 |  |
| Clc1ccc(Nc2nnc(Cc3ccncc3)c3ccccc23)cc1 [Vatalanib] | 7.55 | 46.26 | 6.67 | 48.73 |  |
| CCCS(=O)(=O)Nc1ccc(F)c(C(=O)c2c[nH]c3ncc(-c4ccc(Cl)cc4)cc23)c1F [Vemurafenib, reference compound] |  | 12.12 |  | 12.00 | IC50 [5]: 12.9 ± 1.6 µM; remaining activity at 20 µM (20 μM fixed inhibitor concentration): ~20%; Hill coefficient of AspH inhibition curves (dose-response curves of SPE-MS AspH inhibition assay): < -2.0; IC50 [7]: 16.9 ± 4.4 µM; IC50 [8]: 10.5 ± 1.9 µM; IC50 [9]: 15.1 ± 0.2 µM |
| CC[C@]1(O)C[C@@H]2CN(CCc3c([nH]c4ccccc34)[C@@](C(=O)OC)(c3cc4c(cc3OC)N(C)[C@H]3[C@@](O)(C(=O)OC)[C@H](OC(C)=O)[C@]5(CC)C=CCN6CC[C@]43[C@@H]65)C2)C1 [Vinblastine sulfate] | -22.64 | 60.21 | -30.80 | 67.31 |  |
| CC[C@]1(O)C[C@H]2CN(CCc3c([nH]c4ccccc34)[C@@](C(=O)OC)(c3cc4c(cc3OC)N(C=O)[C@H]3[C@@](O)(C(=O)OC)[C@H](OC(C)=O)[C@]5(CC)C=CCN6CC[C@]43[C@@H]65)C2)C1.O=S(=O)(O)O [Vincristine Sulfate (Oncovin)] | 7.89 | 46.11 | 3.90 | 50.11 |  |
| CCC1=C[C@@H]2CN(C1)Cc1c([nH]c3ccccc13)[C@@](C(=O)OC)(c1cc3c(cc1OC)N(C)[C@H]1[C@@](O)(C(=O)OC)[C@H](OC(C)=O)[C@]4(CC)C=CCN5CC[C@]31[C@@H]54)C2 [Vinorelbine tartrate] | 35.58 | 33.32 | 36.10 | 34.14 |  |
| CS(=O)(=O)c1ccc(C(=O)Nc2ccc(Cl)c(-c3ccccn3)c2)c(Cl)c1 [Vismodegib] | 10.42 | 44.94 | 2.79 | 50.66 |  |
| O=C(CCCCCCC(=O)Nc1ccccc1)NO [Vorinostat] | 3.50 | 48.13 | 7.67 | 48.24 |  |
| Oc1nc(-c2ccc(C(F)(F)F)cc2)nc2c1CSCC2 [XAV-939] | 0.04 | 49.73 | 0.58 | 51.75 |  |
| COc1cc2nccc(Oc3ccc(NC(=O)C4(C(=O)Nc5ccc(F)cc5)CC4)cc3)c2cc1OC [XL184_Cabozantinib] | 11.20 | 44.58 | -8.84 | 56.43 |  |

Source: publication PMC7588595, “Small-molecule active pharmaceutical ingredients of approved cancer therapeutics inhibit human aspartate/asparagine-β-hydroxylase” (Bioorganic & Medicinal Chemistry, 2020)
